Literature values in patent US5484728A (priority 1994, dated 1996).

For `CCOP(=S)(OCC)Oc1cc(C)nc(C(C)C)n1` [diazinon], the “half-life of diazinon in soil without enzyme present” value is listed as 226 h.
